Assay [1] deals with TAT-mediated transactivation of HIV transcription (HIV-1 LTR promoter). Kind of assay: SEAP assay of TAT-mediated transactivation (antiviral activity). Type of assay: cell-based, human immunodeficiency virus (HIV). Conditions: COS-7 cells co-transfected with pHIVSEAP and pCTAT, 48 hours treatment. The protocol:
Antiviral activity is determined using a SEAP (SEcreted Alkaline Phosphatase) assay, in which cells are co-transfected with SEAP and TAT plasmids. TAT is a transactivator, human immunodeficiency virus (HIV) gene expression and is one of the two or more necessary viral regulatory factors (TAT and REV) for HIV gene expression. TAT acts iv binding to the TAR RNA element and activating transcription from the long terminal repeat (LTR) promoter. […] Previous studies have shown that TAT mediates reduction of antibody-dependent T cell proliferation, contributing substantially to the failure of the immune response. TAT also directly stimulates Kaposi's cell growth.
Since TAT has no apparent cellular homologs, this strong positive regulator has become an attractive target for the development of anti-AIDS drugs. In contrast to currently available HIV reverse transcriptase inhibitors (AZT, DDI) or potential protease inhibitors that prevent new rounds of infection, an inhibitor which suppresses viral gene TAT regulated expression of integrated proviral DNA will arrest the virus at an early stage (Hsu et al., Science 254:1799-1802, 1991). Efforts aimed at the elucidation of factors which control gene expression at transcriptional and post-transcriptional levels in host eukaryotes have recently made possible quantitative assessment of TAT function (Sim, Ann. N.Y. Acad. Sci. 616: 64-70, 1990). To screen for inhibitors for TAT regulated transactivation (TAT-TRS), the SEAP reporter gene is put under the control of HIV-1 LTR promoter in the plasmid pBC12/HIV/SEAP. The TAT-coded activity is supplied by a second plasmid construct pBC12/CMV/t2. Transient co-transfection of COS-7 cells with these two plasmids leads to secretion of alkaline phosphatase into the culture medium which is analyzed by a simple colorimetric assay (Berger et al., Gene 66: 1-10, 1988). […]
In the SEAP assay, an inhibitor should cause reduction of SEAP reporter gene expression via transactivation of the HIV-1 LTR promoter by TAT protein (TAT-TRS). […] SEAP is detected colorimetrically by the para-nitrophenyl phosphate substrate at 405 nm. […] The cells are analyzed by the MTT assay to compare cytotoxicity to SEAP inhibition. […]
COS-7 (green monkey kidney) cells were co-transfected using Fugene 6 reagent (Roche Applied Science, Cat. No. 11815091001, Indianapolis, Ind., USA) with two plasmids: pHIVSEAP (SEAP expression vector under the control of the HIV LTR promoter) and pCTAT (HIV TAT transcription factor expression vector under the control of a CMV (cytomegalovirus) promoter). After test compound treatment for 48 hours, samples were analyzed for […] at 405 nm after addition of the p-nitrophenyl phosphate substrate. The percentage of SEAP activity inhibition was calculated in relation to the placebo control.

A further assay relates to COS-7 cells. As to the kind of experiment: MTT cytotoxicity assay in COS-7 cells (run with SEAP). Type of assay: cell-based, green monkey. The following applies: COS-7 test cells of the SEAP assay. Background: Tetrazolium dyes change colour on reduction, which living cells bring about.
For a further assay, the system named is A549 (lung carcinoma). As to the kind of experiment: MTS cell viability assay, A549. The following applies: Homo sapiens, A549, read-out: A549 IC50. Type of assay: cell-based. From the text: (§1) Studies performed regarding cytotoxicity included the well-known MTS, Trypan Blue and MTT protocols. The MTS studies were done using the CellTiter 96®AQueous One Solution Cell Proliferation Assay (Promega Corporation, Madison, Wis. USA). Metabolically active, namely viable, cells turn MTS, a tetrazolium compound (3-(4,5-dimethylthiazol-2-yl)-5-(3-carboxymethoxyphenyl)-2-(4-sulfophenyl)-2H-tetrazolium, inner salt) into colored formazan, which is soluble in tissue culture medium. The measurement of the absorbance of the formazan is read at 490 nm. The ready to use reagent is added directly to the cells in media in 96-well plates, incubated 1-4 hours and the results are recorded by the plate reader. The IC50 is estimated by graphing the gathered data. The IC50 is the concentration of the tested material that inhibits 50% of growth or viability of the tested material compared to a control.
(§2) Three cell lines obtained from ATCC and maintained as directed by ATCC were tested: HeLa (cervical adenocarcinoma), A549 (lung carcinoma), and COS-7 (SV40 transformed monkey kidney). Studies of these cell lines are considered to be indicative of the effect of tested substances on mammalian, including human, diseases.
(§3) All compounds were dissolved in DMSO and DMSO is used as the placebo. The samples were first dissolved into 10 mM dilutions in DMSO and then diluted further to 5, 1, 0.5, 0.1, 0.05, and 0.01 mM solutions. These solutions were added to the media at a 1% concentration (1 μl to 100 μl media) to treat the cells with 100, 50, 10, 5, 1, 0.5, and 0.1 μM of the compound. […] Solutions were checked before use for precipitation, especially the 10 mM solutions. If there was precipitation, they were warmed 65° C. and added to warmed media.
(§4) Wells on a 96-well plate were seeded with 1.5-8×10^4 cells in 100 μl media and incubated overnight. The outside wells of the plate were filled with 200 μl sterile, deionized (DI) water to curb media evaporation. After 24 hours, test chemicals were prepared in media at a concentration of 1% media volume. The test sample media were added, mixing with pipette before adding 100 μl per well. Media was added to the “Media Only” wells. The well plate and its contents were incubated for 24-72 hours, depending on the study conducted. On the thy of the MTS assay, the MTS reagent was removed from the refrigerator and brought to room temperature. Using the multichannel pipette, 20 μl of the MTS reagent was added to each well and incubated for one to four hours. The plate was read at 490 nm with a reference wavelength of 690 nm after one hour in the incubator thereafter until the blank wells were at about 0.2 OD. The results were then scanned into a Microsoft® Excel® template designed to perform all necessary calculations whim data are entered. The data were checked for statistical errors; data points that are within 10% of the mean of the data points for that group were included. The average of the blanks (“Media Only”) were subtracted and the data were inserted into a chart that represents growth response, treated/untreated.

In assay [2] the test system is HeLa (cervical adenocarcinoma). As to the kind of experiment: MTS cell viability assay, HeLa. Type of assay: cell-based. Conditions: Homo sapiens, HeLa, read-out: HeLa IC50.
From the text: as §1, §2, §3, §4

A further assay deals with MCP-1. As to the kind of experiment: MCP-1 protein production in TNF-α-treated primary human keratinocytes. The following applies: read-out: MCP-1 IC50; TNF-α-treated PHK. Type of assay: cell-based. The protocol: Anti-inflammatory activity was determined based on the effect of tested compounds on primary human keratinocytes (PHKs). PHKs play an important role in inflammatory processes, synthesizing a number of cytokines, adhesion molecules and growth factors. Studies were conducted to determine whether tested compounds could inhibit keratinocytes to prevent or reduce production of interferon gamma (IFN-γ), interleukin-8 (IL-8), tumor necrosis factor alpha (TNF-α), granulocyte/macrophage colony-stimulating factor (GM-CSF), intercellular adhesion molecule-1 (ICAM-1, also known as CD54) and monocyte chemotactic protein-1 (MCP-1). PHKs are first treated with TNF-α to induce a pro-inflammatory state and release of pro-inflammatory cytokines. Specific cytokines are then assayed following manufacturer's instructions using R&D Systems. Inc.'s protein assays (Quantikine ELISA kits; Catalog Nos. DCP00 for MCP-1 kit, DCM00 for GM-CSF kit, and DIF50 for IFN-γ).
Anti-inflammatory activity of several of the compounds of the previously described working examples was determined based on the effect of tested compounds on primary human keratinocytes (PHKs) as described above and following the manufacturer's instructions for the various kits used in the studies. While these studies more typically are used mostly for anti-inflammatory investigations, they can also apply to vascular diseases, since the results in keratinocytes may be extrapolated to vascular endothelium.
Only MCP-1 data with PHKs is dose-dependent, so an IC50 for MCP-1 can be calculated, but not for the other cytokines.

Counter-ions that a name gives are not always drawn.

In general, IC50 refers to the concentration that gives 50% inhibition.

Procedure for COS-7 cells: The MTT assay is a colorimetric method for determining the number of viable cells. Metabolically active cells turn the MIT reagent, (3-(4,5-dimethylthiazol-2-yl)-2,5-diphenyltetrazolium bromide, into purple-colored formazan crystals that are solubilized in dimethyl sulfoxide (DMSO). The MTT reagent is added to MTT (colorless) media. The media is added to the cells and they are incubated for 4 hours. DMSO is added to the cells and mixed. The colored solutions are then read at 540 nm and corrected at 630 nm. The IC50 is estimated by graphing the gathered data.
The cells are analyzed by the MTT assay to compare cytotoxicity to SEAP inhibition. The goal is for the drug to inhibit SEAP without being too toxic.
The MTT assay measures cellular-proliferation and is used to verify that the levels of SEAP activity are not solely due to cytotoxicity. These assays was used in screening for potential drug compound leads as antiviral agents, and particularly, anti-HIV candidates.

Regarding `Cc1nc(COc2ccc(C[C@@H](C)[C@@H](C)Cc3ccc(OCc4csc(C)n4)c(OCc4csc(C)n4)c3)cc2OCc2csc(C)n2)cs1` [Compound F, 1,4-bis{3,4-bis(2-methyl-thiazol-4-yl-methoxy)phenyl}-2,3-dimethyl-(2R,3S)-butane tetrakis-hydrochloride salt], the “SEAP EC50” value in assay [1] is “Variable”. Besides, the “COS-7 IC50” value with COS-7 cells is “Variable”. Besides, the IC50 (in the assay with A549 (lung carcinoma); in assay [2]; with MCP-1) was more than 100 µM in each case.

For the origin of these results see patent US20150374709A1, “TETRA-SUBSTITUTED NDGA DERIVATIVES VIA ETHER BONDS AND CARBAMATE BONDS AND THEIR SYNTHESIS AND PHARMACEUTICAL USE” (ERIMOS PHARMACEUTICALS LLC, priority 2006, published 2015).
